Measured values published in ChEMBL document CHEMBL1649540, “The novel CXCR4 antagonist KRH-3955 is an orally bioavailable and extremely potent inhibitor of human immunodeficiency virus type 1 infection: comparative studies with AMD3100” (Antimicrob Agents Chemother, 2009).
Activity calls are given as the source filed them. The calls are words filed in the database; no cut-off is given here.

Experiments:
[1] = tested on: Human immunodeficiency virus 1; test: Antiviral activity against HIV1 NL4-3 infected in human PBMC assessed as inhibition of viral p24 antigen production after 7 to 10 days by ELISA; type: functional, organism-based; conditions: Human immunodeficiency virus 1, NL4-3
[2] = tested on: Human immunodeficiency virus 1; test: Antiviral activity against HIV1 X4 infected in human PBMC assessed as inhibition of viral p24 antigen production after 7 to 10 days by ELISA; type: functional, organism-based; conditions: Human immunodeficiency virus 1, X4
[3] = tested on: Human immunodeficiency virus 1; test: Antiviral activity against HIV1 89.6 infected in human PBMC assessed as inhibition of viral p24 antigen production after 7 to 10 days by ELISA; type: functional, organism-based; conditions: Human immunodeficiency virus 1, 89.6
[4] = tested on: Human immunodeficiency virus 1; test: Antiviral activity against HIV1 JRCSF infected in human PBMC assessed as inhibition of viral p24 antigen production after 7 to 10 days by ELISA; type: functional; conditions: Human immunodeficiency virus 1, JRCSF ISOLATE
[5] = tested on: Human immunodeficiency virus 1; test: Antiviral activity against HIV1 R5 infected in human PBMC assessed as inhibition of viral p24 antigen production after 7 to 10 days by ELISA; type: functional, organism-based; conditions: Human immunodeficiency virus 1, R5
[6] = tested on: Human immunodeficiency virus 1; test: Antiviral activity against HIV1 A018H infected in human PBMC assessed as inhibition of viral p24 antigen production after 7 to 10 days by ELISA; type: functional, organism-based; conditions: Human immunodeficiency virus 1, A018H
[7] = tested on: Human immunodeficiency virus 1; test: Antiviral activity against HIV1 A018G infected in human PBMC assessed as inhibition of viral p24 antigen production after 7 to 10 days by ELISA; type: functional, organism-based; conditions: Human immunodeficiency virus 1, A018G
[8] = tested on: Human immunodeficiency virus 1; test: Antiviral activity against HIV1 NL4-3 infected in HEK293 cells assessed as inhibition of viral replication after 2 days; type: functional, organism-based; conditions: Human immunodeficiency virus 1, NL4-3, HEK293, 48 h
[9] = tested on: Human immunodeficiency virus 1; test: Antiviral activity against HIV1 HXB2 infected in HEK293 cells assessed as inhibition of viral replication after 2 days; type: functional, organism-based; conditions: Human immunodeficiency virus 1, HXB2, HEK293, 48 h
[10] = tested on: Human immunodeficiency virus 1; test: Antiviral activity against NRTI-resistant HIV1 HXB2 infected in HEK293 cells assessed as inhibition of viral replication after 2 days; type: functional, organism-based; conditions: Human immunodeficiency virus 1, HXB2, HEK293, 48 h
[11] = tested on: Human immunodeficiency virus 1; test: Antiviral activity against NNRTI-resistant HIV1 HXB2 infected in HEK293 cells assessed as inhibition of viral replication after 2 days; type: functional, organism-based; conditions: Human immunodeficiency virus 1, HXB2, HEK293, 48 h
[12] = tested on: Human immunodeficiency virus 1; test: Antiviral activity against PI-resistant HIV1 HXB2 infected in HEK293 cells assessed as inhibition of viral replication after 2 days; type: functional, organism-based; conditions: Human immunodeficiency virus 1, HXB2, HEK293, 48 h
[13] = tested on: Human immunodeficiency virus 1; test: Antiviral activity against multidrug resistant HIV1 HXB2 infected in HEK293 cells assessed as inhibition of viral replication after 2 days; type: functional, organism-based; conditions: Human immunodeficiency virus 1, HXB2, HEK293, 48 h
[14] = tested on: Human immunodeficiency virus 1; test: Antiviral activity against T20-resistant HIV1 NL4-3 infected in HEK293 cells assessed as inhibition of viral replication after 2 days; type: functional, organism-based; conditions: Human immunodeficiency virus 1, NL4-3, HEK293, 48 h
[15] = target: T1, C-X-C chemokine receptor type 4 (Homo sapiens, UniProt P61073); test: Displacement of [125I]SDF-1alpha form CXCR4 expressed in CHO cells at 0.1 to 1000 nmol/L by scintillation counting; type: cell-based
T1 sequence (P61073 whole entry): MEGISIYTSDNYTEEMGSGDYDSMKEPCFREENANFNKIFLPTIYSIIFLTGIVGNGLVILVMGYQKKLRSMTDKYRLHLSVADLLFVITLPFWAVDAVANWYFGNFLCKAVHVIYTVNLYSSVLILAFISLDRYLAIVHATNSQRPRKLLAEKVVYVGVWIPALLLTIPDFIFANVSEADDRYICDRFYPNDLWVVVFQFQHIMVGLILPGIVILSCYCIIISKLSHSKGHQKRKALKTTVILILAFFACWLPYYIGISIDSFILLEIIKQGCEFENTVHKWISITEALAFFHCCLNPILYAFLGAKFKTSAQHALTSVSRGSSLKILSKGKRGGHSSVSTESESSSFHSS

[16] = tested on: C-X-C chemokine receptor type 4 (Homo sapiens), P61073 [V112A]; test: Inhibition of Mab 12G5 binding to CXCR4 V112A mutant expressed in HEK293 cells; type: cell-based
Sequence of C-X-C chemokine receptor type 4 (Homo sapiens), P61073 [V112A] (P61073 whole entry V112A): as the sequence (P61073 whole entry) above, with V112A counted along it

[17] = tested on: C-X-C chemokine receptor type 4 (Homo sapiens), P61073 [D181A]; test: Inhibition of Mab 12G5 binding to CXCR4 D181A mutant expressed in HEK293 cells; type: cell-based
Sequence of C-X-C chemokine receptor type 4 (Homo sapiens), P61073 [D181A] (P61073 whole entry D181A): as the sequence (P61073 whole entry) above, with D181A counted along it

[18] = tested on: C-X-C chemokine receptor type 4 (Homo sapiens), P61073 [V280A]; test: Inhibition of Mab 12G5 binding to CXCR4 V280A mutant expressed in HEK293 cells; type: cell-based
Sequence of C-X-C chemokine receptor type 4 (Homo sapiens), P61073 [V280A] (P61073 whole entry V280A): as the sequence (P61073 whole entry) above, with V280A counted along it

[19] = tested on: C-X-C chemokine receptor type 4 (Homo sapiens), P61073 [H281A]; test: Inhibition of Mab 12G5 binding to CXCR4 H281A mutant expressed in HEK293 cells; type: cell-based
Sequence of C-X-C chemokine receptor type 4 (Homo sapiens), P61073 [H281A] (P61073 whole entry H281A): as the sequence (P61073 whole entry) above, with H281A counted along it

[20] = target: T1, C-X-C chemokine receptor type 4; conditions: MOLT-4; 1000 nM
Description: Inhibition of Mab 12G5 binding to CXCR4 expressed in human MOLT4 cells at 1000 nM by FACS analysis

[21] = target: T1, C-X-C chemokine receptor type 4; conditions: MOLT-4; 1000 nM; remark: listed apart in the source
Description: Inhibition of Mab 12G5 binding to CXCR4 expressed in human MOLT4 cells at 1000 nM measured post drug washout by FACS analysis

Compound	EC50 [1] [nM]	EC50 [2] [nM]	EC50 [3] [nM]	EC50 [4] [nM]	EC50 [5] [nM]	EC50 [6] [nM]	EC50 [7] [nM]	also measured
Cc1cn([C@H]2C[C@H](N=[N+]=[N-])[C@@H](CO)O2)c(=O)[nH]c1=O [ZIDOVUDINE]	11	8	7.4	0.96	6.2	1.9	87000	
COC[C@@H](c1ccc(C(F)(F)F)cc1)N1CCN(C2(C)CCN(C(=O)c3c(C)ncnc3C)CC2)C[C@@H]1C [VICRIVIROC]	> 1000	> 1000	> 1000	0.37	1.2			
CC(C)(C)NC(=O)[C@@H]1C[C@@H]2CCCC[C@@H]2CN1C[C@@H](O)[C@H](Cc1ccccc1)NC(=O)[C@H](CC(N)=O)NC(=O)c1ccc2ccccc2n1	9	29	9.9	2.6	8			
c1cc(CN2CCCNCCNCCCNCC2)ccc1CN1CCCNCCNCCCNCC1 [PLERIXAFOR]	41	15	44	> 200	> 200	38	32	IC50 [8]: 4.6 nM; IC50 [9]: 6.2 nM; IC50 [10]: 9 nM; IC50 [11]: 7 nM; IC50 [12]: 9.2 nM; IC50 [13]: 5.3 nM; IC50 [14]: 2.3 nM; Activity [15]: inactive; IC90 [16]: 821 nM; IC90 [17]: 796 nM; IC90 [18]: 821 nM; IC90 [19]: 572 nM; inhibition [20]: Active; inhibition [21]: inactive
NCCCCN(Cc1nc2ccccc2[nH]1)[C@H]1CCCc2cccnc21 [MAVORIXAFOR]	35	15	55	> 200	> 200			
